Test results from ChEMBL document CHEMBL1201862, “PubChem BioAssay data set” (2004).
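A five-concentration, 48-hour dose response in 96-well plates underlies each endpoint, interpolated linearly between surrounding concentrations. The concentration for 50% growth inhibition is given as GI50.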 Activity calls are given as the source filed them. No stated cut-off is given here; in the data, active = GI50 up to about 1.1 µM and inactive = higher.

Key:
Test in all cases: inhibition of tumour cell growth, NCI panel, 48 h
[1] = system: MOLT-4
[2] = system: SF-539
[3] = system: CCRF-CEM
[4] = system: IGROV-1
[5] = system: K562
[6] = system: SW-620
[7] = system: Hs-578T
[8] = system: Malme-3M
[9] = system: LOX IMVI
[10] = system: U-251
[11] = system: SK-MEL-28
[12] = system: NCI-H522
[13] = system: SNB-19
[14] = system: UACC-62
[15] = system: HT-29
[16] = system: NCI-H460
[17] = system: MCF7
[18] = system: T47D
[19] = system: OVCAR-4
[20] = system: HCT-116

SMILES | GI50 [1] | GI50 [2] | GI50 [3] | GI50 [4] | GI50 [5] | GI50 [6] | GI50 [7] | GI50 [8] | GI50 [9] | GI50 [10] | GI50 [11] | GI50 [12] | GI50 [13] | GI50 [14] | GI50 [15] | GI50 [16] | GI50 [17] | GI50 [18] | GI50 [19] | GI50 [20]
C[C@@H](C[C@H]1OC(C)(C)O[C@@H]1C(C)(C)O)[C@H]1CC=C2[C@]3(C)[C@H](O)C[C@H]4C(C)(C)[C@H](O)CC[C@]4(C)[C@H]3CC[C@]21C | 4.52 µM (inactive) | 11.9 µM (inactive) | 5.64 µM (inactive) | 11.9 µM (inactive) | 3.99 µM (inactive) | 10.7 µM (inactive) | 7.33 µM (inactive) | 14 µM (inactive) | 8.13 µM (inactive) | 6.84 µM (inactive) | 9.95 µM (inactive) | 8.24 µM (inactive) | 10.7 µM (inactive) | 11.5 µM (inactive) | 2.9 µM (inactive) | 6.44 µM (inactive) | 2.12 µM (inactive) | 7.73 µM (inactive) | 8.51 µM (inactive) | 5.86 µM (inactive)
O=C(NNS(=O)(=O)c1ccccc1)c1cccnc1 | > 100 µM (inactive) | > 100 µM (inactive) | 59.7 µM (inactive) | > 100 µM (inactive) | > 100 µM (inactive) | > 100 µM (inactive) | > 100 µM (inactive) | > 100 µM (inactive) | > 100 µM (inactive) | > 100 µM (inactive) | > 100 µM (inactive) | > 100 µM (inactive) | > 100 µM (inactive) | > 100 µM (inactive) | > 100 µM (inactive) | > 100 µM (inactive) | > 100 µM (inactive) | > 100 µM (inactive) | > 100 µM (inactive) | > 100 µM (inactive)
COC(=O)C1(Cc2ccc3c(c2)CCC3)Cc2cc3c(cc2C1=O)CCC3 (configuration not stated) | 16.5 µM (inactive) | > 46.5 µM (inactive) | 17.7 µM (inactive) | 24.4 µM (inactive) | 8.93 µM (inactive) | 16.9 µM (inactive) | 33 µM (inactive) | 41.5 µM (inactive) | 25.1 µM (inactive) | 29.4 µM (inactive) | 37.2 µM (inactive) | 8.85 µM (inactive) | 31.2 µM (inactive) | 37 µM (inactive) | 20.3 µM (inactive) | 15.3 µM (inactive) | 21.4 µM (inactive) | 10.8 µM (inactive) | 18.7 µM (inactive) | 11.4 µM (inactive)
CCOc1cc2c(cc1O)CC[C@@H]1[C@@H]2CC[C@]2(C)C(N)CC[C@@H]12 (some centres not stated) | 5.93 µM (inactive) | 2.36 µM (inactive) | 1.73 µM (inactive) | 3.78 µM (inactive) | 3.89 µM (inactive) | 3.04 µM (inactive) | 3.67 µM (inactive) | 11.8 µM (inactive) | 4.06 µM (inactive) | 2.89 µM (inactive) | 9.62 µM (inactive) | 3.45 µM (inactive) | 4.83 µM (inactive) | 3.91 µM (inactive) | 2.44 µM (inactive) | 2.91 µM (inactive) | 3.37 µM (inactive) | 8.53 µM (inactive) | 19.3 µM (inactive) | 3.05 µM (inactive)
CC1=NN2C(=N)/C(=C/c3ccc(F)cc3)C(=O)N=C2S1 | > 100 µM (inactive) | > 100 µM (inactive) | > 100 µM (inactive) | > 100 µM (inactive) | > 100 µM (inactive) | > 100 µM (inactive) | > 100 µM (inactive) | > 100 µM (inactive) | > 100 µM (inactive) | > 100 µM (inactive) | > 100 µM (inactive) | > 100 µM (inactive) | > 100 µM (inactive) | > 100 µM (inactive) | > 100 µM (inactive) | > 100 µM (inactive) | > 100 µM (inactive) | > 100 µM (inactive) | > 100 µM (inactive) | > 100 µM (inactive)
Nc1ncc(/C=N/O)c(NCC2(CO)CC(CCc3ccccc3)C2)n1 (configuration not stated) | 3.36 µM (inactive) | 13.8 µM (inactive) | 14.7 µM (inactive) | 6.75 µM (inactive) | 0.144 µM (active) | – | 22.4 µM (inactive) | 12.1 µM (inactive) | 2.39 µM (inactive) | 12 µM (inactive) | – | 3.22 µM (inactive) | – | 12.3 µM (inactive) | 2.67 µM (inactive) | 5.74 µM (inactive) | 4.58 µM (inactive) | 0.0111 µM (active) | 8.26 µM (inactive) | 0.0569 µM (active)
Cc1ccc([N+](=O)[O-])c2c(NCCC[N+](C)(C)[O-])ccnc12 | 34.8 µM (inactive) | > 100 µM (inactive) | 44.6 µM (inactive) | 20.6 µM (inactive) | 27.5 µM (inactive) | 34.1 µM (inactive) | 48.8 µM (inactive) | 44 µM (inactive) | 49.5 µM (inactive) | 83.6 µM (inactive) | > 100 µM (inactive) | 15 µM (inactive) | 89.5 µM (inactive) | > 10 µM (inactive) | 34.8 µM (inactive) | 21.3 µM (inactive) | 14.9 µM (inactive) | 35.1 µM (inactive) | 20.3 µM (inactive) | 38.9 µM (inactive)
